For one experiment, the system named is H226. Nature of the experiment: Anti-proliferation assay in H226 cells. Type of experiment: cell-based. Particulars: Homo sapiens. As to the method:
(§1) Certain compounds were tested in TEAD reporter assay, and in H226 and H28. A: EC50<0.1 uM; B: 0.1 uM≤EC50≤0.5 uM; C: EC50>0.5 uM.
Individual cell lines were grown in medium according to supplier instructions and seeded into 96-well plates at a density that ensured logarithmic growth over 72 hours. TEAD inhibitor compounds were administered to cells at a top concentration of 10 μm and subsequently a 10 point 3-fold serial dilution was conducted. After 72 hours, proliferation was quantified using Cell TITERGLO™ (Promega, Inc.) and compared to vehicle control. IC50 and EC50 values were generated using XLFit curve fitting software.

For a further experiment, the system named is TEAD. Nature of the experiment: TEAD reporter assay (Hippo Pathway TEAD Reporter - MCF7 cell line, luciferase). Format: cell-based. As to conditions: Homo sapiens.
Text: TEAD inhibition can be assayed using Hippo Pathway TEAD Reporter—MCF7 Cell Line (BPS Bioscience, Catalog #: 60618).
The TEAD Reporter—MCF7 cell line contains the firefly luciferase gene under the control of TEAD responsive elements stably integrated into the human breast cancer cell line, MCF7. Inside the cells, basal unphosphorylated YAP/TAZ remains in the nucleus and induces the constitutive expression of luciferase reporter. The cell line is validated for the inhibition of the expression of luciferase reporter by the activators of the Hippo pathway.
• 1) Harvest TEAD Reporter—MCF7 cells from culture in growth medium and seed cells at a density of 35,000 cells per well into white clear-bottom 96-well microplate in 45 μl of assay medium. • 2) Incubate cells at 37° C. in a CO2 incubator for overnight. • 3) Dilute the activators (H2O2 or okadaic acid) stock in assay medium. Add 5 μl of diluted activators to the wells. The final concentration of DMSO in assay medium is 0.1%. • 4) Add 5 μl of assay medium with same concentration of DMSO without activator to control wells. • 5) Add 50 μl of assay medium with DMSO to cell-free control wells (for determining background luminescence). • 6) Set up each treatment in at least triplicate. • 7) Incubate cells at 37° C. in a CO2 incubator for 5-6 hours. • 8) Perform luciferase assay using the ONE-Step™ Luciferase Assay System following the protocol provided: Add 100 μl of ONE-Step™ Luciferase reagent per well and rock at room temperature for ˜15 minutes. Measure luminescence using a luminometer. • 9) Data Analysis: Obtain the background-subtracted luminescence by subtracting the average background luminescence (cell-free control wells) from the luminescence reading of all wells.
as §1

[1] abbreviates: NCI-H226, H226 cells, read-out: H226 EC50.
Setting [2] is: TEAD Reporter - MCF7 cells, read-out: TEAD Reporter Assay EC50.
[3] abbreviates: NCI-H226, read-out: H226 EC50 (uM).
[4] abbreviates: MCF7, read-out: TEAD Reporter Assay EC50 (uM).

Like-named read-outs stand apart in the source and are kept apart here.

One may read the EC50 as the concentration that produces a half-maximal response. For `CNS(=O)(=O)c1ccc(N[C@H]2CCc3ccccc32)c(-c2cn(C)cn2)c1` (single isomer, unassigned) [I-58], the EC50 with H226 (setting [1]) and in the experiment on TEAD (setting [2]) was more than 0.5 µM throughout. On to `CNS(=O)(=O)c1ccc(N[C@@H]2CCc3ccccc32)c(-c2cn(C)cn2)c1` (single isomer, unassigned) [I-59], for which the EC50 with H226 (setting [1]) and in the experiment on TEAD (setting [2]) was less than 0.1 µM throughout.

Turning to `CNS(=O)(=O)c1ccc(NC(CO)c2ccccc2)c(-c2cn(C)cn2)c1` (stereo in doubt) [I-39, 4-[[(1S)-2-Hydroxy-1-phenyl-ethyl]amino]-N-methyl-3-(1-methylimidazol-4-yl)benzenesulfonamide], the EC50 with H226 (setting [1]) and in the experiment on TEAD (setting [2]) was more than 0.5 µM throughout. As to `CNS(=O)(=O)c1ccc(Oc2cccc(C(F)(F)F)c2)c(B(O)O)c1` [I-18, [5-(methylsulfamoyl)-2-[3-(trifluoromethyl)phenoxy]phenyl]boronic acid], the EC50 in the experiment on H226 (setting [1]) is more than 0.5 µM. For `CNS(=O)(=O)c1ccc(Oc2cccc(C(F)(F)F)c2)c(-c2cnc(C)[nH]2)c1` [I-19, N-Methyl-3-(2-methyl-1H-imidazol-5-yl)-4-[3-(trifluoromethyl)phenoxy]benzenesulfonamide], the EC50 in the experiment with H226 (setting [1]) is more than 0.5 µM. In the case of `CNS(=O)(=O)c1ccc(Oc2cccc(C(F)(F)F)c2)c(-c2cc(C)n[nH]2)c1` [I-20, N-methyl-3-(3-methyl-1H-pyrazol-5-yl)-4-[3-(trifluoromethyl)phenoxy]benzenesulfonamide], the EC50 with H226 (setting [1]) was more than 0.5 µM.

With `CNS(=O)(=O)c1ccc(Nc2cccc(C(F)(F)F)c2)c(C(=O)N(C)OC)c1` [I-21, N-methoxy-N-methyl-5-(methylsulfamoyl)-2-[3-(trifluoromethyl)anilino]benzamide], the EC50 with H226 (setting [1]) was more than 0.5 µM. With `CNS(=O)(=O)c1ccc(Oc2cccc(C(F)(F)F)c2)c(-c2cn(C)cn2)c1` [I-22, Y-Methyl-3-(1-methyl-1H-imidazol-4-yl)-4-(3-(trifluoromethyl)phenoxy)benzenesulfonamide], the EC50 in the experiment with H226 (setting [1]) and in the experiment with TEAD (setting [2]) was more than 0.5 µM in each case.

For the compound `CNS(=O)(=O)c1ccc(Nc2cccc(C(F)(F)F)c2)c(C(C)=O)c1` [I-23, 3-acetyl-N-methyl-4-[3-(trifluoromethyl)anilino]benzenesulfonamide], the EC50 with H226 (setting [1]) and in the experiment on TEAD (setting [2]) was more than 0.5 µM throughout.

For `CNS(=O)(=O)c1ccc(Oc2cccc(C(F)(F)F)c2)c(C(N)=O)c1` [I-24], the EC50 in the experiment with H226 (setting [1]) and with TEAD (setting [2]) was more than 0.5 µM throughout. Consider `CNS(=O)(=O)c1ccc(Oc2cccc(C(F)(F)F)c2)c(-c2nc(C)c[nH]2)c1` [I-25, N-Methyl-3-(4-methyl-1H-imidazol-2-yl)-4-[3-(trifluoromethyl)phenoxy]benzenesulfonamide], for which the EC50 in the experiment with TEAD (setting [2]) is more than 0.5 µM.

`COC(=O)c1ccc(NCc2ccccc2)c(-c2nnn(C)n2)c1` [I-26, Methyl 4-(benzylamino)-3-(2-methyltetrazol-5-yl)benzoate]: the EC50 in the experiment on H226 (setting [1]) and in the experiment on TEAD (setting [2]) was more than 0.5 µM each time. Consider `CNS(=O)(=O)c1ccc(N[C@@H](C)c2ccccc2)c(-c2cn(C)cn2)c1` [I-28, N-Methyl-3-(1-methylimidazol-4-yl)-4-[[(1S)-1-phenylethyl]amino]benzenesulfonamide], for which the EC50 in the experiment on H226 (setting [1]) and in the experiment on TEAD (setting [2]) was more than 0.5 µM each time. Turning to `CNS(=O)(=O)c1ccc(NC(=O)c2ccccc2)c(-c2cn(C)cn2)c1` [I-29, N-[2-(1-Methylimidazol-4-yl)-4-(methylsulfamoyl)phenyl]benzamide], the concentration for a half-maximal effect (EC50) in the experiment with H226 (setting [3]) and with TEAD (setting [4]) was more than 0.5 µM in each case. Take `CNS(=O)(=O)c1cnc(N[C@@H](C)c2ccccc2)c(-c2cn(C)cn2)c1` [I-34, N-Methyl-5-(1-methylimidazol-4-yl)-6-[[(1S)-1-phenylethyl]amino]pyridine-3-sulfonamide]: the EC50 with H226 (setting [1]) and in the experiment on TEAD (setting [2]) was more than 0.5 µM throughout. As to `CNS(=O)(=O)c1cnc(N[C@H](C)c2ccccc2)c(-c2cn(C)cn2)c1` [I-35, N-Methyl-5-(1-methylimidazol-4-yl)-6-[[(1R)-1-phenylethyl]amino]pyridine-3-sulfonamide], the EC50 in the experiment on H226 (setting [1]) and in the experiment on TEAD (setting [2]) was 0.1 to 0.5 µM in each case. Regarding `CNS(=O)(=O)c1ccc(N[C@H](CO)c2ccccc2)c(-c2cn(C)cn2)c1` [I-40, 4-[[(1S)-2-Hydroxy-1-phenyl-ethyl]amino]-N-methyl-3-(1-methylimidazol-4-yl)benzenesulfonamide], the EC50 in the experiment with H226 (setting [1]) and with TEAD (setting [2]) was more than 0.5 µM throughout. Take `CCNS(=O)(=O)c1ccc(NCc2ccccc2)c(-c2cn(C)cn2)c1` [I-41, 4-(Benzylamino)-N-ethyl-3-(1-methylimidazol-4-yl)benzenesulfonamide]: the EC50 with H226 (setting [1]) is less than 0.1 µM; in the experiment on TEAD (setting [2]), 0.1 to 0.5 µM. On to `Cn1cnc(-c2cc(S(N)(=O)=O)ccc2NCc2ccccc2)c1` [I-42, 4-(Benzylamino)-3-(1-methylimidazol-4-yl)benzenesulfonamide], for which the EC50 in the experiment on H226 (setting [1]) is 0.1 to 0.5 µM; in the experiment with TEAD (setting [2]) it was more than 0.5 µM. In the case of `Cn1cnc(-c2cc(S(C)(=O)=O)ccc2NCc2ccccc2)c1` [I-44, N-Benzyl-2-(1-methylimidazol-4-yl)-4-methylsulfonyl-aniline], the EC50 is 0.1 to 0.5 µM with H226 (setting [1]) and more than 0.5 µM in the experiment with TEAD (setting [2]). `CC[C@@H](Nc1ccc(S(=O)(=O)NC)cc1-c1cn(C)cn1)c1ccccc1` [I-45, N-Methyl-3-(1-methylimidazol-4-yl)-4-[[(1R)-1-phenylpropyl]amino]benzenesulfonamide]: the EC50 with H226 (setting [3]) and in the experiment on TEAD (setting [4]) was 0.1 to 0.5 µM in each case. In the case of `CC(C)NS(=O)(=O)c1ccc(NCc2ccccc2)c(-c2cn(C)cn2)c1` [I-46, 4-(Benzylamino)-N-isopropyl-3-(1-methylimidazol-4-yl) benzenesulfonamide], the EC50 was 0.1 to 0.5 µM with H226 (setting [3]) and more than 0.5 µM in the experiment with TEAD (setting [4]).

On to `CNS(=O)(=O)c1ccc(N[C@@H]2CCCc3ccccc32)c(-c2cn(C)cn2)c1` [I-47, N-Methyl-3-(1-methylimidazol-4-yl)-4-[[(1R)-tetralin-1-yl]amino]benzenesulfonamide], for which the EC50 in the experiment with H226 (setting [1]) and in the experiment with TEAD (setting [2]) was 0.1 to 0.5 µM throughout. On to `Cn1cnc(-c2cc(S(C)(=O)=O)ccc2Nc2cc(C(F)(F)F)ccn2)c1` [I-48, N-[2-(1-Methylimidazol-4-yl)-4-methylsulfonyl-phenyl]-4-(trifluoromethyl)pyridin-2-amine], for which the figures for the EC50 with H226 (setting [1]) and with TEAD (setting [2]) were 0.1 to 0.5 µM and more than 0.5 µM, respectively. Turning to `Cn1cnc(-c2cc(S(N)(=O)=O)ccc2Nc2cc(C(F)(F)F)ccn2)c1` [I-49, 3-(1-Methylimidazol-4-yl)-4-[[4-(trifluoromethyl)-2-pyridyl]amino]benzenesulfonamide], the EC50 was 0.1 to 0.5 µM in the experiment with H226 (setting [1]) and more than 0.5 µM in the experiment on TEAD (setting [2]).

Consider `CNS(=O)(=O)c1ccc(NCc2ccccc2)c(-c2cn(C(C)C)cn2)c1` [I-50, 4-(Benzylamino)-3-(1-isopropylimidazol-4-yl)-N-methyl-benzenesulfonamide], for which the EC50 with H226 (setting [1]) and in the experiment on TEAD (setting [2]) was 0.1 to 0.5 µM each time.

With `CNS(=O)(=O)c1ccc(NCc2ccccc2)c(-c2cn(C3CC3)cn2)c1` [I-51, 4-(Benzylamino)-3-(1-cyclopropylimidazol-4-yl)-N-methyl-benzenesulfonamide], the EC50 in the experiment on H226 (setting [1]) and with TEAD (setting [2]) was less than 0.1 µM each time.

For the compound `CNS(=O)(=O)c1ccc(N[C@H]2CCCc3ccccc32)c(-c2cn(C)cn2)c1` [I-52, N-Methyl-3-(1-methylimidazol-4-yl)-4-[[(1S)-tetralin-1-yl]amino]benzenesulfonamide], the EC50 in the experiment with H226 (setting [1]) and in the experiment with TEAD (setting [2]) was more than 0.5 µM throughout. Consider `CC[C@H](Nc1ccc(S(=O)(=O)NC)cc1-c1cn(C)cn1)c1ccccc1` [I-53, N-Methyl-3-(1-methylimidazol-4-yl)-4-[[(1S)-1-phenylpropyl]amino]benzenesulfonamide], for which the EC50 with H226 (setting [1]) and in the experiment on TEAD (setting [2]) was more than 0.5 µM throughout.

In the case of `CNS(=O)(=O)c1ccc(Nc2cc(C(F)(F)F)ccn2)c(-c2cn(C3CC3)cn2)c1` [I-54, 3-(1-Cyclopropylimidazol-4-yl)-N-methyl-4-[[4-(trifluoromethyl)-2-pyridyl]amino]benzenesulfonamide], the EC50 with H226 (setting [1]) and in the experiment on TEAD (setting [2]) was less than 0.1 µM throughout. As to `CNS(=O)(=O)c1ccc(Nc2ccc(C(F)(F)F)cn2)c(-c2cn(C3CC3)cn2)c1` [I-87, 3-(1-Cyclopropylimidazol-4-yl)-N-methyl-4-[[5-(trifluoromethyl)-2-pyridyl]amino]benzenesulfonamide], in the experiment on H226 (setting [1]), the EC50 was less than 0.1 µM.
